{
  "source": "patent US7723112B2",
  "about": "“Compositions and methods for treating and diagnosing cancer” (The Regents of the University of Michigan, priority 2005, dated 2010)",
  "system": "UM-C4 tumor cells",
  "conditions": "monitored four months",
  "text": "Mice were monitored for tumor growth over a period of four months and scored as either positive or negative for tumor growth such that Poisson statistics could be done to assess TG cell frequency among the input population.",
  "note": "Like-named read-outs stand apart in the source and are kept apart here.",
  "data": [
    {"smiles": "O=P1(N(CCCl)CCCl)NCCCO1", "note": "(stereo not shown) [CPA, Cyclophosphamide]", "values": [
      {"measurement": "mice developing tumors / mice injected", "setting": "input of 56 bulk tumor cells from CPA-treated tumors", "result": "4/8"},
      {"measurement": "mice developing tumors / mice injected", "setting": "input of 167 bulk tumor cells from CPA-treated tumors", "result": "5/8"},
      {"measurement": "mice developing tumors / mice injected", "setting": "input of 500 bulk tumor cells from CPA-treated tumors", "result": "9/9"},
      {"measurement": "mice developing tumors", "setting": "input of 1,500 bulk tumor cells from CPA-treated tumors", "result": "All eight"}
    ]}
  ]
}
